Measurements published in patent publication US4755522A, “Derivatives of N-[3-(2,4,6-trimethoxybenzoyl)propyl]piperidine, and their use in therapeutics” (priority 1986, dated 1988).
Counter-ions that a name gives are not always drawn. Like-named read-outs stand apart in the source and are kept apart here.

Columns and labels:
[1] = test system: arrhythmias with aconitine; assay: Arrhythmias with aconitine in the guinea-pig; type: in vivo
Experimental: The compound was administered by intravenous route at a dose of 10 mg/kg to a series of 10 albino guinea-pigs of 380 to 495 g, anaesthetized with urethane.
5 minutes later, they receive an I.V. perfusion of the product causing arrhythmia at a dosage of 0.09 mg/min. in a volume of 0.6 ml/min.
The compound is compared with quinidine at a dose of 5 mg/kg I>V> and with a series of controls.
Lots are drawn for the treatments.
B--Action on arrhythmias with aconitine.

cardio-vascular system = assay: Action on the cardio-vascular system in the anaesthetized dog; type: in vivo; details: for minimal effective dose: Canis lupus familiaris, read-out: dose from which heart rate is significantly reduced
Experimental: (b) Action on the cardio-vascular system (in the dog).
(§1) 3 dogs (average weight, 12 kg) anaesthetized with nembutal, receive the compound by intra-duodenal route at successive doses of 0.1-0.5-2.5-10 and 20 mg/kg.
The arterial pressure, the cardiac rate, the femoral arterial flow, the vertebral arterial flow, the rectal and skin temperatures are all measured. The coloration of the skin is observed.
(§2) 3 dogs (average weight, 14 kg) anaesthetized with nembutal, received the CRL 41,390 by intra-duodenal route, at successive doses of 0.1-0.5-1-2.5-5-10-20 mg/kg, then a supplementary dose of 10 mg/kg I.V.
The arterial pressure, the cardiac frequency, the femoral arterial flow, the vertebral arterial flow, the rectal and cutaneous temperatures, were measured. The coloration of the skin was observed.

awakened dog = assay: Anti-arrhythmic action on the awakened dog; type: in vivo
noradrenaline = assay: Hypertension with noradrenaline after the compound (dog); type: in vivo; details: after CRL 41,390
Experimental: as §1, §2
Hypertension to noradrenaline is not modified: at 2 mcg/kg of noradrenaline, the systolic arterial pressure passes, after administration of the product, from 160 to 290 mmHg/161 to 289 mmHg in the control.

isoprenaline = assay: Effects of isoprenaline on arterial pressure and cardiac rate after the compound (dog); type: in vivo; details: after CRL 41,390
Experimental: as §2

[2] = test system: amphetaminic stereotypies; assay: Amphetaminic stereotypies in the rat; type: in vivo
Experimental: (§3) The compound of example 2 in solution in distilled water (pH 5.5 to 6.0) was administered by intraperitoneal route at a rate of 20 ml/kg in mice (male, NMRI, C.E.R. January) and of 5 ml/kg to rats (male, CD1, Sprague Dawley, Charles River).

man = assay: Anti-depressant effect in man; type: in vivo
intergroup aggressivity = assay: Intergroup aggressivity; details: in vivo
Experimental: as §3

reserpinic hypothermia = assay: Reserpinic hypothermia; details: in vivo
Experimental: as §3

[3] = test system: arrhythmias caused by I.V. injection of adrenaline; assay: Arrhythmias caused by I.V. adrenaline in dogs with coronary artery previously ligatured; type: in vivo, dog
arterial pressure = details: prior-technique compound; cited from earlier work
[4] = I.D. 0.1-20 mg/kg then 10 mg/kg I.V.

Structure (SMILES): C=C[C@H]1C[N@@]2CC[C@H]1C[C@@H]2[C@@H](O)c1ccnc2ccc(OC)cc12 [quinidine, reference compound]
- appearance of ventricular tachycardia due to aconitine ([1]; quinidine 5 mg/kg I.V.): significantly retards only the appearance of ventricular tachycardia
- retardation of ventricular tachycardia (average) ([1]; quinidine 5 mg/kg I.V.): +30%
- retardation compared with the compound according to the invention ([1]; quinidine 5 mg/kg I.V. vs compound 10 mg/kg I.V.): significantly less than that observed with the compound according to the invention

Structure (SMILES): COc1cc(OC)c(C(=O)CCCN2CCCC(C(=O)O)C2)c(OC)c1.Cl (centres unmarked) [CRL 41,390, N-[3-(2,4,6-trimethoxybenzoyl)propyl]-3-piperidine carboxylic acid hydrochloride]
- effect on vertebral flow (cardio-vascular system; 20 mg/kg): reduction in the vertebral flow
- effect on femoral flow (cardio-vascular system; 20 mg/kg, particularly in a dog): slight increase in the femoral flow
- minimal effective dose (cardio-vascular system; intraduodenal): 20 mg/kg
- minimal effective dose (cardio-vascular system; iv, I.V.): 2.5 mg/kg
- effect on rectal and cutaneous temperatures (cardio-vascular system; [4]): moderately reduced
- effect on the arterial pressure (cardio-vascular system; [4]): no effect on the arterial pressure
- effect on heart rate (cardio-vascular system; from I.V. 2.5 mg/kg and intraduodenal 20 mg/kg): significantly reduces the heart rate
- anti-arrhythmic action (awakened dog): no anti-arrhythmic action
- systolic arterial pressure after the product, with noradrenaline (noradrenaline; 2 mcg/kg noradrenaline, control 289): 290 mmHg
- hypertension to noradrenaline (noradrenaline): not modified
- systolic arterial pressure after the product, before noradrenaline (noradrenaline; control 161): 160 mmHg
- diastolic arterial pressure after the product, with isoprenaline (isoprenaline; 10 mcg/kg isoprenaline, control 35): 44 mmHg
- cardiac frequency after the product, with isoprenaline (isoprenaline; 10 mcg/kg isoprenaline, control 272): 250 beats/min.
- effects of isoprenaline on diastolic arterial pressure and cardiac frequency (isoprenaline): slightly reduced
- diastolic arterial pressure after the product, before isoprenaline (isoprenaline; control 135): 131 mmHg
- cardiac frequency after the product, before isoprenaline (isoprenaline; control 185): 148 beats/min.

Structure (SMILES): CCOC(=O)C1CCCN(CCCC(=O)c2c(OC)cc(OC)cc2OC)C1 (centres unmarked) [CRL 41,389, ethyl N-[3-(2,4,6-trimethoxybenzoyl)propyl] nipecotate hydrochloride]
- amphetaminic stereotypies [2]: moderate potentialization
- effect in man (man): anti-depressant stimulant
- intergroup aggressivity (intergroup aggressivity): reduction of intergroup aggressivity
- reserpinic hypothermia (reserpinic hypothermia): aggravation of reserpinic hypothermia
- minimal effective dose ([3]; Canis lupus familiaris, iv, read-out: dose from which arrhythmias are reduced): 2.5 mg/kg
- arrhythmias caused by I.V. adrenaline ([3]; from 2.5 mg/kg): reduces arrhythmias

Structure (SMILES): COc1cc(OC)c(C(=O)CCCN2CCCC(C)C2)c(OC)c1 (centres unmarked) [CRL 41,034, (2,4,6-trimethoxyphenyl)-[3-(3-methylpiperidino)propyl] ketone]
- effect on the arterial pressure (arterial pressure): hypotensive effect
